# Results taken from patent US10813982B2, “Composition comprising an oxidoreductase enzyme and its antibacterial use” (SYSTAGENIX WOUND MANAGEMENT, LIMITED, priority 2015, dated 2020).
# Legend:
# P. aeruginosa biofilms = assay: Biofilm model: 24 hour exposure against 24 hour old single species biofilm, viable count; type: cell-based, Pseudomonas aeruginosa; settings: 30 μl per disc/biofilm, 37° C., 80 rpm shaking, FIG. 1
# Description: (§1) Stationary phase cultures of S. aureus or P. aeruginosa grown in TSB were adjusted to 0.5 McFarland (c. 1.5×10^8 CFU/mL) and diluted a further 1:4 ratio (1 mL inoculum with 3 mL 0.1% Bactopeptone). A viable count was taken of each inoculum preparation. Sterile discs (6 mm diameter×1.0 mm) housed in 24 well culture plates were inoculated with 80 μL of culture. 0.2 ml of a test media was then added, the assay plates were parafilmed and incubated for 24 h at 37 degrees Celsius with 80 rpm shaking to allow biofilm formation. Unused wells were filled with PBS to increase humidity and prevent evaporation. After 24 hours incubation, cellulose discs/biofilms were rinsed with PBS to remove any […] vegetative cells and transferred to 150 μl of fresh media. For the honey (as the source of glucose) and Prontosan®, 30 μl was added to each test disc. […] Assuming the lowest concentration (100,[…]), 3.5 mg (350 U) was added to 3.5 ml of DPBS to give a 100 U/ml working stock which was filter sterilised. For the Pseudomonas experiment, the working stock was diluted in PBS to give a 10 U/ml solution-30 μl was added to a disc/biofilm. […] 30 μl of each was added to a disc/biofilm. The assay plates were parafilmed and incubated for 24 hours at 37° C. with 80 rpm shaking to allow biofilm disruption. Unused wells were filled with PBS to increase humidity and prevent evaporation. […]
# S. aureus biofilms = assay: as above; type: cell-based, Staphylococcus aureus; settings: 30 μl per disc/biofilm, 37° C., 80 rpm shaking, FIG. 2
# Description: as §1, with “sterilised.” for “sterilised. For the Pseudomonas experiment, the working stock was diluted in PBS to give a 10 U/ml solution-30 μl was added to a disc/biofilm.”
substance,measurement,setting,value
glucose oxidase [glucose oxidase alone],inhibition of 24 hour old single species biofilms of P. aeruginosa,P. aeruginosa biofilms,no inhibition
same,inhibition of 24 hour old single species biofilms of S. aureus,S. aureus biofilms,no inhibition
